The text below walks through data of US20240285513A1, “TOPICAL COMPOSITION AGAINST FINE LINES AND WRINKLES” (priority 2021, published 2024).

Where “and” joins values, the source holds several entries; their conditions need not be identical. Equal entries are not always repeated. Marks after values point to notes of the source that are not given here.

What all share (details): human
The test system of experiment [1] is muscle contraction in the glabella region. As to the kind of experiment: In vivo clinical study (Example 6): electromyography (EMG) muscle response.
Experiment [2] has as its system fine lines and wrinkles, glabella area. As to the kind of experiment: In vivo clinical study (Example 6): clinical grading of fine lines and wrinkles.
In experiment [3] the test system is muscle contraction in the glabella region. As to the kind of experiment: Comparative in vivo clinical study (Example 7): EMG muscle response with or without micro-roller. An excerpt:
(§1) The purpose of the comparative in vivo clinical study was to evaluate the efficacy of a combination of the three extracts for muscle relaxation and wrinkle reduction over four weeks of twice-daily application on Experimental Group 1 participants using a micro-roller (n=33) versus application on Experimental Group 2 participants without using a micro-roller (n=30). The combination of the three extracts was placed in a dermatologically acceptable vehicle as the test product. The dermatologically acceptable vehicle was designed to test the efficacy of the combination of the three extracts when applied with a micro-roller versus application without a micro-roller. Study participants in Experimental Group 1 used a 1.0 mm microroller. Study participants applied the composition containing the three extracts between their eyebrows in the morning and the evening after cleansing their face with a personal cleanser. For Experimental Group 1, study participants used the micro-roller 3 times per week in the evenings by rolling the micro-roller back and forth 4 to 5 times between eyebrows changing directions with each pass. […] The amounts of each extract used in the dermatologically acceptable vehicle was Rosmarinus officinalis leaf extract at 1 wt. %, Lavendula stoechas extract at 2 wt. %, and Acmella oleracea extract at 2 wt. %. […]

Experiment [4] concerns fine lines and wrinkles, glabella area. As to the kind of experiment: Comparative in vivo clinical study (Example 7): clinical grading of fine lines and wrinkles.
Source text: as §1

For onabotulinumtoxinA [BoTox], the “% EMG Response (AUC)” value in experiment [1] was 58%* and 40%*; in experiment [3], 58%* and 40%*. Besides, the “% Clinical Improvement of Wrinkles” value in experiment [2] was 31%* and 35%*; in experiment [4], 31%* and 35%*.
